According to patent US20250188080A1, “IMIDAZOLONYLQUINOLINE COMPOUNDS AND THERAPEUTIC USES THEREOF” (Merck Patent GmbH, priority 2019, published 2025):

What was measured:
[1] = system: pDNA-PK (Cellular mechanistic DNA-PK, HCT-116); test: pDNA-PK cellular assay; format: cell-based, human; conditions: HCT-116, 10 μM bleomycin
Description: HCT116 cells are cultured in MEM alpha medium with 10% fetal calf serum and 2 mM glutamine at 37° C. and 10% CO2. The cells were detached from the bottom of the culture vessels using trypsin/EDTA, centrifuged in centrifuge tubes, taken up in fresh medium and the cell density was determined. 100,000 cells were seeded in 1 ml of culture medium per well of a 24-well cell culture plate and cultured overnight. The next day, 10 μM bleomycin (DNA intercalator and DNA double-strand breaker inducer) and the test substances in fresh culture medium were added to the cells and cultured for a further six hours. Cell lysis was then performed and the cell lysates were spotted on a 96-well ELISA plate (Sigma-Aldrich WH0005591M2: total DNA-PK, Abcam ab18192 or Epitomics EM09912: phospho-serine 2056 DNA-PK), which was blocked and coated with DNA-PK specific antibody, and incubated at 4° C. overnight. Subsequently, the 96-well ELISA plates were treated with a detection antibody (Abcam ab79444: total DNA-PK) and a streptavidin-HRP conjugate. The development of the enzymatic reaction was carried out using a chemiluminescent reagent, the chemiluminescence was measured using the Mithras LB940. The signals with the phospho-DNA-PK specific antibody were normalized to the signal with the antibody against the whole protein DNA-PKc. […] The DMSO control was used as blank.

[2] = system: pCHK2 (Cellular mechanistic ATM, HCT-116); test: Cellular pCHK2 assay (bleomycin-induced phospho-Thr68 CHK2); format: cell-based, human
Text: For the identification of substances which inhibit the phosphorylation of the protein kinase CHK2 (checkpoint kinase 2) at the amino acid threonine 68, an immunofluorescence-based “high content” analysis assay was used in HCT116 cells. In vitro cell-based immunofluorescence assay for the identification of inhibitors of bleomycin-induced phosphorylation of CHK2 (phospho-Thr68) in the human colon carcinoma cell line HCT116: HCT116 cells are sown out in a defined cell density in 384-well plates in culture medium (DMEM high glucose, 2 mM GlutaMax, 1 mM Na pyruvate, 10% FCS) and incubated overnight at 37° C. and 10% of CO2. On the following day, the test substances are added in a defined concentration range (1 nM to 30 μM) in combination with 10 μM bleomycin, where the concentration of the solvent DMSO is kept constant at 0.5%. After incubation for four hours at 37° C. and 10% of CO2, the cells are fixed (5 min, 4% formaldehyde in PBS), permeabilised (10 min, 0.2% Triton X-100 in PBS) and, after blocking of nonspecific binding sites (10% goat serum, 1% BSA in PBS), incubated overnight at 4° C. with a specific anti-pCHK2 antibody (cell signaling #2661). pCHK2 (Thr68) is determined using an Alexa488-labelled secondary anti-rabbit IgG antibody. Parallel staining of DNA with propidium iodide enables determination of the cell count. The pCHK2 signal is detected using a high-content imager (Molecular Devices IMX Ultra) and automatic image analysis using the MetaXpress software belonging to the instrument. The number of cell nuclei which have a pCHK2 signal above a defined background is determined.

[3] = system: pCHK1 (Cellular mechanistic ATR, HCT-116); test: pCHK1 cellular assay; format: cell-based, human
[4] = target: T1, human phosphodiesterase-4D2 (Homo sapiens, UniProt Q08499); test: PDE4D2 assay (Cerep); format: biochemical
T1 construct: purchased Cerep 4077; host or cells: Sf9 cells
T1 sequence (Q08499 303-809 limits assumed): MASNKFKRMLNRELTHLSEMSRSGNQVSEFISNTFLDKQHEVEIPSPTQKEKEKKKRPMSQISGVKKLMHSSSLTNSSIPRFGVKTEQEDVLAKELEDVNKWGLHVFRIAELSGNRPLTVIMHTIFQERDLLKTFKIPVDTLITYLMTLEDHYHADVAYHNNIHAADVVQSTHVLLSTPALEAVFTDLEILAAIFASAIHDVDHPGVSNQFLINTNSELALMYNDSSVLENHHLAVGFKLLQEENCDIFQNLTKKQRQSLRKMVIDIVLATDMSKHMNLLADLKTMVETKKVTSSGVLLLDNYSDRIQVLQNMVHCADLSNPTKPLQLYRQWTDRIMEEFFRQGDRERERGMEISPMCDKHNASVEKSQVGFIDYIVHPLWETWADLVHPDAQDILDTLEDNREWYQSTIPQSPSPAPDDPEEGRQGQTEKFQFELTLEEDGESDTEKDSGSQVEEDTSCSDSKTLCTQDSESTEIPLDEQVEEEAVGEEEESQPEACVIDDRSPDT
Description: A commercially available assay of Cerep was used (Catalog ref. 4077; SOP no 1C1045) The assay is designed to evaluate the effects of test compounds on the activity of the human phosphodiesterase-4D2 quantified by measuring the formation of 5′AMP from cAMP using a human recombinant enzyme expressed in Sf9 cells.
The test compound, reference compound or water (control) are added to a buffer containing 40 mM Tris/HCl (pH 7.4) and 8 mM MgCl2, 450 nM cAMP and 0.0125 μCi [^3H]cAMP.
Thereafter, the reaction is initiated by addition of the enzyme (about 1.5 U) and the mixture is incubated for 20 min at 22° C.
(§1) For basal control measurements, the enzyme is omitted from the reaction mixture.
Following incubation SPA (scintillation proximity assay) beads are added.
(§2) After 30 min at 22° C. under shaking, the amount of [^3H]5′AMP is quantified with a scintillation counter (Topcount, Packard).
(§3) The results are expressed as a percent inhibition of the control enzyme activity.
The standard inhibitory reference compound is Ro 20-1724, which is tested in each experiment at several concentrations to obtain an inhibition curve from which its IC50 value is calculated.

[5] = target: human phosphodiesterase-2A1 (Homo sapiens, UniProt O00408); test: PDE2A1 assay (Cerep); format: biochemical
Description: A commercially available assay was used (Cerep, catalog ref. 4071, SOP no 1C1054), which is designed to evaluate the effects of compounds on the activity of the human phosphodiesterase-2A1 quantified by measuring the formation of 5′AMP from cAMP using a human recombinant enzyme expressed in Sf9 cells.
The test compound, reference compound or water (control) are added to a buffer containing 40 mM Tris/HCl (pH 7.4), 8 mM MgCl2 and 1.7 mM EGTA/NaOH, 1.8 μM cAMP and 1 μCi [^3H]cAMP.
Thereafter, the reaction is initiated by addition of the enzyme (about 2.5 U) and the mixture is incubated for 20 min at 22° C.
as §1
Following incubation SPA beads are added.
as §2, §3
The standard inhibitory reference compound is EHNA (erythro-9-(2-hydroxy-3-nonyl) adenine), which is tested in each experiment at several concentrations to obtain an inhibition curve from which its IC50 value is calculated.

[6] = Homo sapiens, HCT-116, HCT-116 as printed in the table

IC50 [1]	IC50 ([2]; HCT-116, 10 μM bleomycin)	IC50 ([3]; HCT-116)	IC50 [4]	IC50 [5]	IC50 ([1]; Homo sapiens)	IC50 ([2]; Homo sapiens, HCT-116, HCT-116, 10 μM bleomycin)	IC50 [3, 6]	Compound
> 30000 nM	76 nM	> 30000 nM	440 nM	3900 nM	–	–	–	COc1cc2ncc3c(c2cc1-c1cn(C)nc1C)n(-c1c(F)cncc1OC)c(=O)n3C (single isomer, unassigned) [Compound 2, 8-(1,3-Dimethyl-1H-pyrazol-4-yl)-1-(Ra)-(3-fluoro-5-methoxy-pyridin-4-yl)-7-methoxy-3-methyl-1,3-dihydro-imidazo[4,5-c]quinolin-2-one]
–	–	–	600 nM	1400 nM	> 30000 nM	86 nM	7900 nM	COc1cc2ncc3c(c2cc1-c1cn(C)nc1C)n(-c1c(F)cncc1OC)c(=O)n3C [Compound Y, 8-(1,3-dimethyl-1H-pyrazol-4-yl)-1-(3-fluoro-5-methoxypyridin-4-yl)-7-methoxy-3-methyl-1,3-dihydroimidazo[4,5-c]quinolin-2-one, reference compound]
–	13 nM	–	3000 nM	2200 nM	> 30000 nM	–	≥ 24000 nM	COc1cc2ncc3c(c2cc1-c1cn(C)nc1C)n(-c1c(F)cncc1OC)c(=O)n3C (single isomer, unassigned) [Compound 1, 8-(1,3-Dimethyl-1H-pyrazol-4-yl)-1-(Sa)-(3-fluoro-5-methoxy-pyridin-4-yl)-7-methoxy-3-methyl-1,3-dihydro-imidazo[4,5-c]quinolin-2-one]
